Test systems include A549; RXF 393; SK-OV-3; SK-MEL-28; CCRF-CEM; MDA-N; SNB-75; A498; SF-295; MDA-MB-231; DU-145; 786-0; MCF7; UO-31; NCI-H460; SK-MEL-5; TK-10; SW-620; NCI-H23; Hs-578T.
Common to all, as to test: NCI tumour cell line growth inhibition, 48 h

From ChEMBL document CHEMBL1201862, “PubChem BioAssay data set” (2004) come the findings set out here.

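Cells were grown in 96-well plates and exposed to each compound for 48 hours at five concentrations; endpoints were interpolated linearly between bracketing concentrations, or set to the highest concentration if not reached. Abbreviation: GI50, concentration required for 50% inhibition of growth.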 Calls of active or inactive are those of the source. Rule as the data show it: active = GI50 up to about 1.1 µM and inactive = higher.

For the compound `Oc1c2c(nc3cc4c(cc13)OCO4)-c1ccccc1CCC2`, the GI50 in the assay with A549 is > 50 µM (inactive); in the assay on RXF 393 it was > 50 µM (inactive); in the assay with SK-OV-3, > 50 µM (inactive); in the assay with SK-MEL-28 it was > 50 µM (inactive); in the assay on CCRF-CEM it was > 50 µM (inactive); in the assay with MDA-N, 18.9 µM (inactive). The GI50 in the assay on SNB-75 was > 50 µM (inactive); in the assay on A498 it was > 50 µM (inactive); in the assay on SF-295, 17.1 µM (inactive); in the assay with MDA-MB-231 it was > 50 µM (inactive); in the assay on DU-145, > 50 µM (inactive); in the assay on 786-0, > 50 µM (inactive). The GI50 was 26.5 µM (inactive) in the assay with MCF7; > 50 µM (inactive) in the assay with UO-31; > 50 µM (inactive) in the assay with NCI-H460; 45.6 µM (inactive) with SK-MEL-5; > 50 µM (inactive) with TK-10; > 50 µM (inactive) in the assay with SW-620. Further, the GI50 with NCI-H23 is > 50 µM (inactive); in the assay on Hs-578T, 15.9 µM (inactive).

For `COc1cccc(OC)c1/C=C1\OC(=O)c2cccc(OC)c21`, the GI50 was 7.36 µM (inactive) with A549; 4.61 µM (inactive) in the assay on RXF 393; 5.2 µM (inactive) in the assay on SK-OV-3; 6.7 µM (inactive) with SK-MEL-28; 3.84 µM (inactive) in the assay with CCRF-CEM; 0.596 µM (active) in the assay with MDA-N. In addition, the GI50 in the assay with SNB-75 was 2.96 µM (inactive); with A498, 4.14 µM (inactive); in the assay on SF-295, 3.13 µM (inactive); in the assay on MDA-MB-231, 12.8 µM (inactive); in the assay with DU-145, 5.32 µM (inactive); in the assay with 786-0 it was 5.02 µM (inactive). Further, the GI50 with MCF7 is 3.14 µM (inactive); with UO-31 it was 5.47 µM (inactive); in the assay on NCI-H460 it was 2.65 µM (inactive); in the assay with SK-MEL-5 it was 3.13 µM (inactive); with TK-10, 11.5 µM (inactive); in the assay on SW-620, 3.37 µM (inactive). For the same compound, the GI50 in the assay with NCI-H23 was 19.4 µM (inactive); in the assay with Hs-578T it was 3.96 µM (inactive).

`CC1=C(C(=O)Nc2cccc3c2C(=O)NC3=O)CC(C(=O)Nc2cccc3c2C(=O)NC3=O)=C(C)N1`: the GI50 in the assay with A549, in the assay with RXF 393, in the assay with SK-OV-3, in the assay on SK-MEL-28, in the assay on CCRF-CEM and in the assay on MDA-N was > 100 µM (inactive) throughout. Also, the GI50 is 88.3 µM (inactive) with SNB-75; > 100 µM (inactive) in the assay on A498; > 100 µM (inactive) in the assay with SF-295; > 100 µM (inactive) in the assay with MDA-MB-231; > 100 µM (inactive) in the assay with DU-145; > 100 µM (inactive) in the assay on 786-0. Besides, the GI50 in the assay on MCF7, in the assay with UO-31, in the assay on NCI-H460, with SK-MEL-5, with TK-10 and in the assay with SW-620 was > 100 µM (inactive) each time. For the same compound, the GI50 with NCI-H23 and in the assay with Hs-578T was > 100 µM (inactive) throughout.

With `C[N+]12CCCCC1C(COc1cccc3cccnc13)CCC2` (stereo not given), the GI50 is > 100 µM (inactive) in the assay on A549; > 100 µM (inactive) in the assay on RXF 393; > 100 µM (inactive) with SK-OV-3; > 100 µM (inactive) in the assay on SK-MEL-28; > 100 µM (inactive) in the assay with CCRF-CEM; 93.5 µM (inactive) with MDA-N. The GI50 with SNB-75 was > 100 µM (inactive); with A498 it was > 100 µM (inactive); in the assay on SF-295, > 100 µM (inactive); with MDA-MB-231, 91.2 µM (inactive); with DU-145, > 100 µM (inactive); with 786-0, > 100 µM (inactive). Moreover, the GI50 in the assay on MCF7 is > 100 µM (inactive); in the assay with UO-31, > 100 µM (inactive); with NCI-H460, 58.6 µM (inactive); in the assay with SK-MEL-5 it was 75 µM (inactive); in the assay on TK-10, > 100 µM (inactive); with SW-620 it was > 100 µM (inactive). In addition, the GI50 in the assay on NCI-H23 and in the assay on Hs-578T was > 100 µM (inactive) throughout.

For the compound `CCOC(=O)C1=NN(c2ccccc2)C(=O)/C1=C\NC(=S)C(N)=S`, the GI50 is 66.1 µM (inactive) in the assay with A549; 29.2 µM (inactive) with RXF 393; 75.7 µM (inactive) in the assay on SK-OV-3; 39.8 µM (inactive) with SK-MEL-28; 34.1 µM (inactive) in the assay with CCRF-CEM; 32.8 µM (inactive) in the assay with MDA-N. Moreover, the GI50 in the assay on SNB-75 is 47.3 µM (inactive); in the assay with A498 it was > 100 µM (inactive); in the assay on SF-295, 74.6 µM (inactive); in the assay with MDA-MB-231, 65.2 µM (inactive); in the assay with DU-145, 50.9 µM (inactive); with 786-0, 20.7 µM (inactive). Also, the GI50 with MCF7 is 36.1 µM (inactive); with UO-31 it was 19.2 µM (inactive); in the assay with NCI-H460, 49.3 µM (inactive); with SK-MEL-5, 19.6 µM (inactive); with TK-10, 36.2 µM (inactive); in the assay on SW-620 it was 38.5 µM (inactive). Besides, the GI50 with NCI-H23 was 87.1 µM (inactive); with Hs-578T it was 32.7 µM (inactive).

As to `C=CCN(C(C)=O)c1cc(OCc2ccccc2)c2c(c1)c(C)cn2S(=O)(=O)c1ccccc1`, the GI50 with A549 was 4.06 µM (inactive); in the assay on RXF 393, 4.74 µM (inactive); in the assay on SK-OV-3 it was 16.1 µM (inactive); with SK-MEL-28, 21.2 µM (inactive); in the assay with CCRF-CEM, 4.11 µM (inactive); with MDA-N it was 4.66 µM (inactive). Also, the GI50 with SNB-75 is 6.18 µM (inactive); in the assay with A498, 5.16 µM (inactive); in the assay with SF-295 it was 3.94 µM (inactive); in the assay with MDA-MB-231, 6.98 µM (inactive); in the assay with DU-145 it was 9.75 µM (inactive); in the assay on 786-0 it was 6.21 µM (inactive). The GI50 was 3.93 µM (inactive) in the assay on MCF7; 2.86 µM (inactive) in the assay with UO-31; 4.75 µM (inactive) in the assay on NCI-H460; 4.37 µM (inactive) in the assay with SK-MEL-5; 39.6 µM (inactive) with TK-10; 5.46 µM (inactive) in the assay with SW-620. The GI50 in the assay with NCI-H23 was 7.8 µM (inactive); in the assay with Hs-578T, 7.4 µM (inactive).

Consider `Nc1ncnc2c1ncn2C1OC(CO)=CC1O` (stereo not given), for which the GI50 with A549, with RXF 393, in the assay on SK-OV-3, with SK-MEL-28, with CCRF-CEM and in the assay on MDA-N was > 37.5 µM (inactive) throughout. Moreover, the GI50 in the assay with SNB-75, with A498, in the assay on SF-295, in the assay on MDA-MB-231, in the assay on DU-145 and in the assay on 786-0 was > 37.5 µM (inactive) in each case. The GI50 in the assay on MCF7, with UO-31, with NCI-H460, in the assay on SK-MEL-5, with TK-10 and in the assay with SW-620 was > 37.5 µM (inactive) each time. Moreover, the GI50 in the assay on NCI-H23 and with Hs-578T was > 37.5 µM (inactive) each time.
